Assay results: patent US9107964B2, “Radioactive fluorine-labeled compound” (NIHON MEDI-PHYSICS CO., LTD., priority 2011, dated 2015)
Entries after “also recorded” stand apart in the source; their conditions may differ.

Legend:
Format in all cases: in vivo, mouse (Balb/c nu/nu)
[1] = test system: hypoxic region of EMT6 tumor (pimonidazole-positive area); assay: Correlation between autoradiographic signal intensity (PSL value) and pimonidazole-positive area (Example 13); settings: tumor tissue sections after PET imaging
Description: In order to evaluate whether or not the compound related to the present invention can quantitatively visualize a hypoxic region of a tumor, the following experiment was carried out using compounds 1 to 3 and [^18F]FMISO.
Using a microscope system (model: BZ-9000, Keyence Corporation) a high magnification image of a pimonidazole-positive site was acquired using the entire image of a pathology image obtained by immunohistochemical staining in the Example 12 and a 10× objective lens. The high magnification image was formed with respect to a randomly selected image region. At the same time the image acquisition site was recorded as a navigation image by use of the navigation function of the microscope system. The acquired high magnification image was subjected to image processing, and a pimonidazole-positive area present in the high magnification image was determined.
The autoradiographic image and the stained image of each labeled compound used were those acquired in the Example 12. The resolution of the navigation image was made to match the resolution of the autoradiographic image, and the geometrical positions of two images were aligned using image analysis software.
In the autoradiographic image, an ROI was set for the site that coincided with the high magnification image acquisition site, and the PSL value (Photo-Stimulated Luminescence value) of the ROI was determined. Furthermore, an ROI was set for a site of the same image that contained no sample, and the PSL value thereof was defined as the background. The PSL value of the background was subtracted from the PSL value of the high magnification image acquisition site to obtain the net PSL value. The hypoxic marker pimonidazole-positive area was plotted on the abscissa and the PSL value in the autoradiographic image on the ordinate, and the correlation factor was determined. This series of operations was carried out for each of the labeled compounds.

[2] = test system: EMT6 tumor-bearing model mice; assay: Biodistribution in tumor and organs of tumor-bearing mouse (Example 14); settings: for Blood / Gall bladder / Heart / Kidney / Large intestine / Liver / Lung / Muscle / Small intestine / Stomach / T/B (tumor/blood ratio) / T/M (tumor/muscle ratio) / Tumor / Urine: mean; for Blood clearance and urinary excretion: compared with [^18F]FMISO, 60 and 120 minutes after administration
Description: The biodistribution of compounds 1 to 3 and [^18F]FMISO in a tumor and each of the organs of a tumor-bearing mouse was measured.
Tumor-bearing model mice used in this experiment were the same as those prepared in Example 10, and 3 or 4 cases that had attained a tumor volume of 200 to 400 mm^3 were selected from each group. The tumor-bearing model mouse was placed under isoflurane anesthesia, pimonidazole that is a hypoxic marker, was administered via a tail vein, and at 10 minutes thereafter, the respective labeled compound was administered. The tumor-bearing model mouse was sacrificed at 60 minutes and 120 minutes after administration. All of the tumor-bearing model mice were sacrificed by blood-letting from the abdominal aorta or by cardiocentesis, and dissection was carried out immediately thereafter. Other than the tumor, the blood, heart, lung, stomach, liver, gallbladder, kidney, small intestine and large intestine, muscle, and urine were sampled, and the other tissues were defined as the remaining whole body. After the weight of each tissue sampled was measured, the amount of radioactivity of the tissue was measured using a gamma counter, and the biodistribution of each of the labeled compounds was compared by converting it into % ID/g (% injection dose/g organ) of each tissue.
In order to examine a hypoxic state within the tumor, immunohistochemical staining of the sample tumor was carried out so as to ascertain whether or not the interior of the tumor was hypoxic. The sampled tumor was fixed using a 20% formalin buffer, and a paraffin block was prepared using an automatic paraffin-embedding apparatus (model: VIP-5-Jr-J0, Sakura Finetek). A slice (thickness: 3 μm) was prepared by means of a microtome (model: Tissue-Tek Feather Trustome, Sakura Finetek). Immunohistochemical staining was carried out by the same method as in Example 12.

[3] = test system: mouse-derived breast cancer cell line (EMT6) tumor-bearing model mice; assay: PET imaging of tumor-bearing model mice (incorporation into tumor cells, Example 10); settings: 60 minutes after administration; for Physiological accumulation in the liver compared with [^18F]FMISO: coronal tomographic PET image; for Excretion route: from coronal tomographic PET image
Description: Accumulation of compound 1, compound 2, and compound 3 in tumor cells in vivo was studied as follows using a mouse-derived breast cancer cell line (EMT6).
Preparation of tumor-bearing model mice: the animals used were six-week-old female Balb/c nu/nu mice (obtained from Japan SLC). Using these animals, a Matrigel suspension (cell count 2.5×10^6 cells/0.05 mL) of EMT6, which is a mouse-derived breast cancer cell line (obtained from ATCC), was subcutaneously implanted in a site from the right rib to the right shoulder. It was confirmed on the third day after implantation that the tumor cells were fixed, and the tumor volume attained 200 to 400 mm^3 9 to 11 days after implantation.

[4] = 60 minutes after administration
[5] = 120 minutes after administration

| Compound | Correlation coefficient (pimonidazole-positive area vs PSL value in autoradiographic image) [1] | Blood [2, 4] [% ID/g] | Gall bladder [2, 4] [% ID/g] | Heart [2, 4] [% ID/g] | Kidney [2, 4] [% ID/g] | Large intestine [2, 4] [% ID/g] | Liver [2, 4] [% ID/g] | Lung [2, 4] [% ID/g] | Muscle [2, 4] [% ID/g] | Small intestine [2, 4] [% ID/g] | Stomach [2, 4] [% ID/g] | T/B (tumor/blood ratio) [2, 4] | T/M (tumor/muscle ratio) [2, 4] | Tumor [2, 4] [% ID/g] | Urine [2, 4] [% ID] | Blood [2, 5] [% ID/g] | Gall bladder [2, 5] [% ID/g] | Heart [2, 5] [% ID/g] | Kidney [2, 5] [% ID/g] | Large intestine [2, 5] [% ID/g] | other results |
| --- | --- | --- | --- | --- | --- | --- | --- | --- | --- | --- | --- | --- | --- | --- | --- | --- | --- | --- | --- | --- | --- |
| O=[N+]([O-])c1nccn1CCC(CO)(CO)C[18F] [Compound 3, 1-(3,3-Dihydroxymethyl-4-[^18F]fluorobutyl)-2-nitroimidazole] | 0.61 | 2.81 | 16.71 | 3.46 | 9.95 | 5.40 | 4.46 | 2.92 | 2.66 | 4.68 | 1.99 | 0.86 | 0.87 | 2.05 | 45.80 | 1.14 | 15.45 | 1.82 | 9.20 | 6.89 | Liver [2, 5]: 2.13 % ID/g; Lung [2, 5]: 1.38 % ID/g; Muscle [2, 5]: 1.44 % ID/g; Small intestine [2, 5]: 3.66 % ID/g; Stomach [2, 5]: 1.26 % ID/g; T/B (tumor/blood ratio) [2, 5]: 2.11; T/M (tumor/muscle ratio) [2, 5]: 1.62; Tumor [2, 5]: 1.93 % ID/g; Urine [2, 5]: 68.78 % ID; Blood clearance and urinary excretion [2]: rapid blood clearance and urinary excretion compared with [^18F]FMISO; Sites of accumulation on coronal tomographic image [3]: intense accumulation of compound 2 and compound 3 was found in the bladder and accumulation thereof was found in the intestinal tract; also recorded: accumulation of compound 3 in the gallbladder; Tumor-specific accumulation on axial tomographic image [3]: tumor-specific accumulation; Physiological accumulation in the liver compared with [^18F]FMISO [3]: low physiological accumulation in the liver; Excretion route [3]: excreted via the kidney and urinary tract system and the hepatobiliary system |
| O=[N+]([O-])c1nccn1CC(CO)(CO)C[18F] [Compound 1, 1-(2,2-Dihydroxymethyl-3-[^18F]fluoropropyl)-2-nitroimidazole] | 0.85 | 1.70 | 26.34 | 2.35 | 4.23 | 3.71 | 3.34 | 1.96 | 1.71 | 3.72 | 1.53 | 1.42 | 1.39 | 2.38 | 62.13 | 0.75 | 8.21 | 1.90 | 2.91 | 2.37 | Liver [2, 5]: 4.31 % ID/g; Lung [2, 5]: 0.89 % ID/g; Muscle [2, 5]: 0.84 % ID/g; Small intestine [2, 5]: 2.78 % ID/g; Stomach [2, 5]: 0.88 % ID/g; T/B (tumor/blood ratio) [2, 5]: 2.47; T/M (tumor/muscle ratio) [2, 5]: 2.03; Tumor [2, 5]: 1.65 % ID/g; Urine [2, 5]: 77.76 % ID; Blood clearance and urinary excretion [2]: rapid blood clearance and urinary excretion compared with [^18F]FMISO; Sites of accumulation on coronal tomographic image [3]: intense accumulation of compound 1 in the bladder, and accumulation thereof in the gallbladder and the intestinal tract; Tumor-specific accumulation on axial tomographic image [3]: tumor-specific accumulation separated from normal tissue such as muscle; Physiological accumulation in the liver compared with [^18F]FMISO [3]: low physiological accumulation in the liver; Excretion route [3]: excreted via the kidney and urinary tract excretion and hepatobiliary excretion systems |
| O=[N+]([O-])c1nc(CO)cn1CC(CO)(CO)C[18F] [Compound 2, 1-(2,2-Dihydroxymethyl-3-[^18F]fluoropropyl)-4-hydroxymethyl-2-nitroimidazole] | 0.80 | 0.60 | 7.54 | 1.32 | 1.86 | 0.96 | 1.14 | 0.89 | 1.25 | 2.35 | 0.48 | 2.11 | 0.91 | 1.13 | 80.42 | 0.25 | 7.33 | 0.74 | 0.82 | 0.88 | Liver [2, 5]: 0.54 % ID/g; Lung [2, 5]: 0.34 % ID/g; Muscle [2, 5]: 0.47 % ID/g; Small intestine [2, 5]: 1.63 % ID/g; Stomach [2, 5]: 0.25 % ID/g; T/B (tumor/blood ratio) [2, 5]: 3.18; T/M (tumor/muscle ratio) [2, 5]: 1.68; Tumor [2, 5]: 0.78 % ID/g; Urine [2, 5]: 90.92 % ID; Blood clearance and urinary excretion [2]: even more rapid; Sites of accumulation on coronal tomographic image [3]: intense accumulation of compound 2 and compound 3 was found in the bladder and accumulation thereof was found in the intestinal tract; Tumor-specific accumulation on axial tomographic image [3]: tumor-specific accumulation; Physiological accumulation in the liver compared with [^18F]FMISO [3]: low physiological accumulation in the liver; Excretion route [3]: excreted mainly via the kidney and urinary tract system |
